Reference: BigSolDB 2.1

CC(=O)N1CCN(c2ccc(O)cc2)CC1
solubility (mole fraction)
Conditions | 283.15 K | 288.15 K | 293.15 K | 298.15 K | 303.15 K | 308.15 K | 313.15 K | 318.15 K | 323.15 K
in 2-butoxyethanol | 0.00309 | 0.00373 | 0.00457 | 0.00537 | 0.00617 | 0.00726 | 0.00852 | 0.0102 | 0.0118
in 2-ethoxyethanol | 0.00486 | 0.0059 | 0.00705 | 0.00829 | 0.00963 | 0.0112 | 0.0134 | 0.0156 | 0.0179
in 2-methoxyethanol | 0.00715 | 0.00822 | 0.00968 | 0.0114 | 0.0133 | 0.0153 | 0.0181 | 0.0212 | 0.0242
in 2-propoxyethanol | 0.00403 | 0.00474 | 0.00574 | 0.00686 | 0.00813 | 0.00951 | 0.011 | 0.0128 | 0.015
in acetonitrile | 0.001 | 0.00124 | 0.0015 | 0.00181 | 0.00217 | 0.00259 | 0.00304 | 0.00359 | 0.00433
in ethanol | 0.00218 | 0.00273 | 0.00328 | 0.00396 | 0.00467 | 0.00551 | 0.00634 | 0.00749 | 0.00887
in ethylene glycol | 0.000479 | 0.000658 | 0.000921 | 0.00123 | 0.00167 | 0.00225 | 0.00293 | 0.00405 | 0.00538
in isobutanol | 0.00108 | 0.00141 | 0.00172 | 0.00214 | 0.00251 | 0.00292 | 0.00353 | 0.00415 | 0.00508
in isopropanol | 0.00132 | 0.00165 | 0.00204 | 0.00263 | 0.00327 | 0.00418 | 0.00526 | 0.00636 | 0.00796
in methanol | 0.00286 | 0.00346 | 0.00411 | 0.00485 | 0.00581 | 0.00679 | 0.00806 | 0.00952 | 0.0111
in n-butanol | 0.00119 | 0.00151 | 0.00186 | 0.00232 | 0.00298 | 0.00392 | 0.00488 | 0.00612 | 0.00765
in n-propanol | 0.00179 | 0.00206 | 0.00238 | 0.00306 | 0.00372 | 0.00459 | 0.00561 | 0.00683 | 0.00829
